Experimental data reported in ChEMBL document CHEMBL4825725, “Synthesis and interaction of terminal unsaturated chemical probes with Mycobacterium tuberculosis CYP124A1” (Bioorg Med Chem, 2021).
The source made the active and inactive calls. The rule behind the calls is not given here.

Tests used:
[1] = Binding affinity to Mycobacterium tuberculosis CYP124A1 by UV-visible spectrophotometric analysis; conditions: read-out: Kd(app)
[2] = Drug metabolism assessed as Mycobacterium tuberculosis CYP124A1-mediated drug oxidation at 50 to 250 uM in presence of ferridoxin, ferridoxin-NADP+ reductase and NADPH by GC-MS analysis; assay type: ADME; conditions: recombinant enzyme, dose 50-250 µM
[3] = system: Mycobacterium tuberculosis; assay: Inhibition of Mycobacterium tuberculosis CYP124A1 at 50 uM incubated for 10 mins in presence of ferridoxin, ferridoxin-NADP+ reductase and NADPH by HPLC analysis

Compound	Kd [1] [µM]	Drug metabolism [2]	inhibition [3]
C=CCOC/C(C)=C/CC/C(C)=C/CO	49.4	Metabolite_Notdetected	inactive
C#CCOC/C(C)=C/CC/C(C)=C/CC/C(C)=C/CO	1.5	Metabolite_Notdetected	inactive
CC(C)CCCC(C)CCCC(C)CCCC(C)CC(=O)O (centres undefined)	0.22	–	–
C#CCOC/C(C)=C/CC/C(C)=C/CO	14.6	Metabolite_Notdetected	inactive
C=CCOC/C(C)=C/CC/C(C)=C/CC/C(C)=C/CO	2.9	Metabolite_Notdetected	inactive
CC(C)=CCC/C(C)=C/CC/C(C)=C/CO [FARNESOL]	1.04	–	–
